Experimental data published in patent US20110118199A1, “USE OF CNS PENETRATING ANTICANCER COMPOUNDS FOR THE TREATMENT OF PROTOZOAL DISEASES” (priority 2006, published 2011).
≈ marks a conversion by molar mass, not a printed value. Like-named read-outs stand apart in the source and are kept apart here. Each block holds one compound with its values, some of them ahead of it.

What was measured:
[1] = tested on: Trypanosoma brucei brucei STIB795; assay: Sleeping sickness acute mouse model, T. b. brucei STIB795; format: in vivo, mice (NMRI); conditions: ip injection, four consecutive days, daily doses of 50 mg/kg; T. b. brucei STIB795 infected mice
Method: Trypanosoma brucei brucei STIB795 is used for this model. Female mice (NMRI), weighing 20-25 g, are maintained at 22° C. and 70% relative humidity.
(§1) Standard drugs as positive controls are Melarsoprol (Arsobal®, Specia, France) and Diminazene aceturate (Berenil®, Hoechst, Germany). Stock solutions of all test items were prepared in DMSO.

[2] = tested on: Trypanosoma brucei rhodesiense (STIB 900 clone); assay: Sleeping sickness acute mouse model, T. b. rhodesiense STIB900; format: in vivo, mice (NMRI)
Method: Sleeping Sickness: Acute Model—Trypanosome b. rhodesiense STIB900 Parasite and Animal Strains Trypanosoma brucei rhodesiense STIB900 is used for this model. Female mice (NMRI), weighing 20-25 g, are maintained at 22° C. and 70% relative humidity.
as §1

[3] = tested on: Trypanosoma brucei rhodesiense (STIB 900 clone); assay: Drug sensitivity assay (Alamar Blue, 72 h) against bloodstream form trypomastigotes in vitro; format: cell-based
Method: Bloodstream form trypomastigotes of the strains (a) and (c) are maintained in Minimal Essential Medium (MEM) with Earle's salts supplemented according to Baltz et al. (EMBO J. 4, 1273-1277, 1985) with 25 mM N-2-hydroxyethylpiperazine-N′-2-ethane-sulphonic acid (HEPES), 1 g/l additional glucose, 1% MEM non-essential amino acids (100×), 0.2 mM 2-mercaptoethanol, 2 mM sodium pyruvate, 0.1 mM hypoxanthine and 15% heat-inactivated horse serum.
All cultures and assays are conducted at 37° C. under an atmosphere of 5% CO2 in air.
Stock drug solutions are prepared in 100% dimethylsulphoxide (DMSO) (unless otherwise recommended by the supplier) at 10 mg/ml, and heated or sonicated if necessary to dissolve the sample. The stocks are kept at −20° C. For the assays, the compound is further diluted to the appropriate concentration using complete medium.
Assays are performed in 96-well microtiter plates, each well containing 100 μl of culture medium with 8×10^3 bloodstream forms with or without a serial drug dilution. The highest concentration of the test compounds is 90 μg/ml. Seven 3-fold drug dilutions are used, covering a range from 90 μg/ml to 0.123 μg/ml. Each drug is tested in duplicate. Active compounds are tested twice for confirmation. The final result is the mean of the four individual IC50 values. After 72 hrs of incubation, the plates are inspected under an inverted microscope to assure growth of the controls and sterile conditions.
Ten microliters of Alamar Blue (12.5 mg resazurin dissolved in 100 ml distilled water) are then added to each well and the plates are incubated for another 2 hours. The plates are read with a Spectramax Gemini XS microplate fluorometer (Molecular Devices Cooperation, Sunnyvale, Calif., USA) using an excitation wave length of 536 nm and an emission wave length of 588 nm. IC50 values are determined using the microplate reader software Softmax Pro (Molecular Devices Cooperation, Sunnyvale, Calif., USA).

[4] = patients treated for African trypanomiasis; cited from earlier work
[5] = tested on: Trypanosoma brucei brucei GVR 35; assay: Sleeping sickness in vivo chronic CNS mouse model, T. b. brucei GVR 35; set-up: species or system mice (NMRI); conditions: 40 mg/kg single i.p. dose on day +21
Method: Sleeping Sickness: In Vivo Chronic CNS Model—Trypanosoma b. brucei GVR 35 Parasite and Animal Strains Trypanosoma brucei brucei GVR 35 which leads to a CNS infection by day 21 post-infection (Jennings and Gray, Contrib. Microbiol. Immunol. 7, 147-54, 1983) is used for this model.
Female mice (NMRI), weighing 20-25 g, are maintained at 22° C. and 70% relative humidity.
Infection: The bloodstream forms are from a stock of cryopreserved stabilates containing 10% glycerol. The stabilate is suspended in PSG (phosphate-saline-glucose) 6:4 (Lanham & Godfrey, Exp. Parasitol. 28, 521-534, 1970) to obtain a trypanosome concentration of 8×10^4/ml. Each mouse is intraperitoneally injected with 0.25 ml inoculum (equivalent to 2×10^4 trypanosomes) on day 0.
Experimental groups and control groups each consist of 5 mice.
Evaluation endpoint: On day +28 and then twice a week until day +50 parasitaemia of all animals is checked by tail blood examination and recorded based on a subjective scale ranging from (+)=1 trypanosome/20 fields to +++=>100 trypanosomes/field with a 20× objective. After day +50 the mice are checked only once per week until day +180. For mice dying before day +180 the day of death is recorded. At day +180, surviving and aparasitaemic mice are considered cured and then euthanized. […]

[6] = 4 × 20 mg/kg p.o., determined on day 18
[7] = T. b. rhodesiense STIB 900, in vitro, 72 h incubation, Alamar Blue, read-out: IC50

Compound: Cn1nnc2c(C(N)=O)ncn2c1=O [Temozolomide]
- cure rate [1]: 100%
- MSD (mean survival days) [2, 6]: >18 days
- Cured/Infected ([2]; 4 × 50 mg/kg i.p.): 3/4
- MSD (mean survival days) ([2]; 4 × 50 mg/kg i.p.): >51.5 days
- Cured/Infected ([2]; 4 × 50 mg/kg p.o.): 4/4
- MSD (mean survival days) ([2]; 4 × 50 mg/kg p.o.): >60 days
- IC50 [3, 7]: 27.7 µg/mL (≈ 143 µM)

Compound: O=NN(CCCl)C(=O)NCCCl [Carmustine]
- IC50 [3, 7]: 2.18 µg/mL (≈ 10.2 µM)

Compound: Nc1nc(N)nc(Nc2ccc([As]3SCC(CO)S3)cc2)n1 (stereo not drawn) [Melarsoprol]
- often fatal reactive encephalopathy, share of treated patients [4]: up to 10%

Compound: CN(C)/N=N/c1[nH]cnc1C(N)=O [Dacarbazine]
- MSD (mean survival days) [2, 6]: 16 days
- MSD (mean survival days) ([2]; 4 × 50 mg/kg p.o., determined on day 18): >18 days
- IC50 [3, 7]: 19.7 µg/mL (≈ 108 µM)

Compound: N=C(N)c1ccc(/N=N/Nc2ccc(C(=N)N)cc2)cc1 [Diminazene diaceturate]
- course of parasitaemia and death (negative control) [5]: all mice clear parasitaemia but relapse before day +40 and die between day +50 and day +60

- IC50 [3, 7]: 0.006 µg/mL (≈ 0.00743 µM)
Compound: CC(=O)O[C@@]12CO[C@@H]1C[C@H](O)[C@@]1(C)C(=O)[C@H](O)C3=C(C)[C@@H](OC(=O)[C@H](O)[C@@H](NC(=O)OC(C)(C)C)c4ccccc4)C[C@@](O)([C@@H](OC(=O)c4ccccc4)[C@H]21)C3(C)C [Docetaxel]

- IC50 [3, 7]: 0.01 µg/mL (≈ 0.0117 µM)
Compound: CC(=O)O[C@H]1C(=O)[C@@]2(C)[C@H]([C@H](OC(=O)c3ccccc3)[C@]3(O)C[C@H](OC(=O)[C@H](O)[C@@H](NC(=O)c4ccccc4)c4ccccc4)C(C)=C1C3(C)C)[C@]1(OC(C)=O)CO[C@@H]1C[C@@H]2O [Paclitaxel]

Compound: C[C@]12CC[C@@H]3c4ccc(OC(=O)N(CCCl)CCCl)cc4CC[C@H]3[C@@H]1CC[C@@H]2O [Estramustine]
- IC50 ([3]; 72 h): 41.5 µg/mL (≈ 94.2 µM)

- IC50 [3, 7]: 0.015 µg/mL (≈ 0.0276 µM)
Compound: COc1cccc2c1C(=O)c1c(O)c3c(c(O)c1C2=O)C[C@@](O)(C(=O)CO)C[C@@H]3O[C@H]1C[C@H](N)[C@H](O)[C@H](C)O1 [Doxorubicin]

- IC50 [3, 7]: 0.13 µg/mL (≈ 0.16 µM)
Compound: CC[C@]1(O)C[C@@H]2CN(CCc3c([nH]c4ccccc34)[C@@](C(=O)OC)(c3cc4c(cc3OC)N(C)[C@H]3[C@@](O)(C(=O)OC)[C@H](OC(C)=O)[C@]5(CC)C=CCN6CC[C@]43[C@@H]65)C2)C1 [Vinblastine]
